According to patent publication US8796470B2 (AbbVie Inc., priority 2010, dated 2014):

Target: T1, human Cav2.2 (Homo sapiens, UniProt Q00975)
T1 construct: IMR32 cells endogenously expressing human Cav2.2; endogenous in cells; host or cells: IMR32 cells (human neuroblastoma)
Assay: Assessment of calcium channel activity using FLIPR (Ca2+ influx in IMR32 cells)
Format: cell-based
Details: IMR32 cells endogenously expressing human Cav2.2, Calcium 4 dye, 60 minute pre-incubation, 2 μM nifedipine, depolarized with 80 mM KCl, 5 mM CaCl2
Experimental: (i) In Vitro Methods—Assessment of Calcium Channel Activity Using FLIPR:
IMR32 cells endogenously expressing human Cav2.2 were assayed for Ca^2+ influx using a no-wash calcium indicator dye (Calcium 4 dye: Molecular Probes) and FLIPR technology (Lubin, M. L.; Reitz, T. L.; Todd, M. J.; Flores, C. M.; Qin, N.; Xin, H. Assay and Drug Development Technologies 2006, 4(6), 689-694.). The IMR32 cells were maintained in MEM media containing 10% (v/v) FBS, 1% (v/v) antibiotic/antimitotic, 1% (v/v) sodium pyruvate and 1% (v/v) MEM NEAA. Following dissociation in 0.05% (v/v) trypsin/EDTA, cells were seeded into black 1×96-well plates (Corning Cellbind) at a density of 1−1.2×10^5 cells/well and incubated in the maintenance media above for 48 hours at 37° C. Immediately prior to performing the assay the media was removed and cells were loaded for 1.5 hours with 1×Calcium 4 dye prepared in HBSS (137 mM NaCl, 5.4 mM KCl, 0.25 mM Na2HPO4, 0.44 mM KH2PO4, 1.3 mM CaCl2, 1 mM MgSO4, 4.2 mM NaHCO3) containing HEPES pH 7.4 at room temperature. After dye loading and a subsequent 60 minute pre-incubation with compounds (full log dilutions from 10 μM to 0.1 nM) in the presence of 1.3 mM CaCl2 and 2 μM nifedipine to block endogenous L-type channels, the external Ca^2+ concentration was increased to 5 mM CaCl2 and the cells concomitantly depolarized with 80 mM KCl to assay channel activity. To determine the IC50 values, the percent inhibition of the compound at each concentration was determined relative to the activity in the absence of inhibitor, and data was fitted using non-linear regression sigmoidal dose response curve analysis with GraphPad Prism®.

T1 sequence (Q00975 whole entry): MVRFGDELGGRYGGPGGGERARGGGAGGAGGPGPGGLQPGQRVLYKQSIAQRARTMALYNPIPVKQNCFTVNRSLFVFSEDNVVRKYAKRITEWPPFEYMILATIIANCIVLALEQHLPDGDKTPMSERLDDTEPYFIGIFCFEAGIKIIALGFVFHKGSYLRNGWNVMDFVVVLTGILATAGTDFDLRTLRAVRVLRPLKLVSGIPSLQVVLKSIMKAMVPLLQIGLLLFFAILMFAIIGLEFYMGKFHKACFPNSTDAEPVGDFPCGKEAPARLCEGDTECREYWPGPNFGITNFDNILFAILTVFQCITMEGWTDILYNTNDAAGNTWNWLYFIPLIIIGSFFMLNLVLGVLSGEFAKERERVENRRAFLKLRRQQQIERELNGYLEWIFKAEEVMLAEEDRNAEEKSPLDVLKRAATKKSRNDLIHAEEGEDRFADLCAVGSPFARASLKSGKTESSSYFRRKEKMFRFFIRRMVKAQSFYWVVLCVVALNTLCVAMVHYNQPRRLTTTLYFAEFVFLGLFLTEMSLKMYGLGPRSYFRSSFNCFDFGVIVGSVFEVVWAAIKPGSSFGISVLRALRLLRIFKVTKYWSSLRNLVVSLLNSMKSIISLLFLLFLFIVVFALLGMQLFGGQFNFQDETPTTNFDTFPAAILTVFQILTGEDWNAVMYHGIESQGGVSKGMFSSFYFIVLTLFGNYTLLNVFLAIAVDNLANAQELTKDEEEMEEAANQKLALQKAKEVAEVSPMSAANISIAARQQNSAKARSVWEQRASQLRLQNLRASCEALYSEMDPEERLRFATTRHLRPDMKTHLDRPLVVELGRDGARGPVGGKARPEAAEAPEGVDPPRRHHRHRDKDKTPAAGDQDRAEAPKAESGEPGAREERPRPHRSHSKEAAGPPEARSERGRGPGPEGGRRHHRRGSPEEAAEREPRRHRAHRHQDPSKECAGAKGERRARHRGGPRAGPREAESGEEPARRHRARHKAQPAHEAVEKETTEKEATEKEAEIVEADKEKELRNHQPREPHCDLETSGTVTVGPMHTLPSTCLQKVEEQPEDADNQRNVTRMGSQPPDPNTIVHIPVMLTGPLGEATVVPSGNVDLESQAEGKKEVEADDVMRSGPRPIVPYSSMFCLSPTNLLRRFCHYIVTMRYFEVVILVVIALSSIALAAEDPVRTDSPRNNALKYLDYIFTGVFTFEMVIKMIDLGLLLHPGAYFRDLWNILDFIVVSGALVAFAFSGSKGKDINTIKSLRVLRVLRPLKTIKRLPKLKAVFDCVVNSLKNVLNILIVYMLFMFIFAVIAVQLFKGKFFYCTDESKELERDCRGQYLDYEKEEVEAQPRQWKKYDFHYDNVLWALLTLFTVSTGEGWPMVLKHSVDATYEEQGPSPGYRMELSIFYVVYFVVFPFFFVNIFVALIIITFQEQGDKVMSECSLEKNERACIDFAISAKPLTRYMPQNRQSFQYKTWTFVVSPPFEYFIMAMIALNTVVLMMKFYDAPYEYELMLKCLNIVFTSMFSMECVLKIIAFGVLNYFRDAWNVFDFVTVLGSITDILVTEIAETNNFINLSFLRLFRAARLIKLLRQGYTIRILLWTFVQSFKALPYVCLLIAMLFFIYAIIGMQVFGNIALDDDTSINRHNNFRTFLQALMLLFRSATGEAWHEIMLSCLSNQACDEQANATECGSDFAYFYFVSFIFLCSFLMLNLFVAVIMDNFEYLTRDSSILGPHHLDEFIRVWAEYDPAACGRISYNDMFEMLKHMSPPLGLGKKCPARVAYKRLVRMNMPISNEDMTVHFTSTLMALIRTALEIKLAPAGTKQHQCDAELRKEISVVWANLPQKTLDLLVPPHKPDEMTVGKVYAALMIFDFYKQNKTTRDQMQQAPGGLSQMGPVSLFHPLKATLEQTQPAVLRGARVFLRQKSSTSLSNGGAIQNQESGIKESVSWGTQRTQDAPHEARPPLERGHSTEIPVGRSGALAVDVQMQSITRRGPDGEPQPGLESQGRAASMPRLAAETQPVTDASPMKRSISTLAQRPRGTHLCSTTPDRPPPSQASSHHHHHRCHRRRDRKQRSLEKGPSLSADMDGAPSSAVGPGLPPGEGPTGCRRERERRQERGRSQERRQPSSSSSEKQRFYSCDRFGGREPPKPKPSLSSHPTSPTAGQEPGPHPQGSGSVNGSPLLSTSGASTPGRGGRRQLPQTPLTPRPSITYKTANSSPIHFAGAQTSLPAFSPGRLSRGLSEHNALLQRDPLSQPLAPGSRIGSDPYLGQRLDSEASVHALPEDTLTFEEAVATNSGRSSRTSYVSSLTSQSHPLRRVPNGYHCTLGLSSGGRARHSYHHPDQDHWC
T1 sequence (P54289 25-956 partner limits assumed): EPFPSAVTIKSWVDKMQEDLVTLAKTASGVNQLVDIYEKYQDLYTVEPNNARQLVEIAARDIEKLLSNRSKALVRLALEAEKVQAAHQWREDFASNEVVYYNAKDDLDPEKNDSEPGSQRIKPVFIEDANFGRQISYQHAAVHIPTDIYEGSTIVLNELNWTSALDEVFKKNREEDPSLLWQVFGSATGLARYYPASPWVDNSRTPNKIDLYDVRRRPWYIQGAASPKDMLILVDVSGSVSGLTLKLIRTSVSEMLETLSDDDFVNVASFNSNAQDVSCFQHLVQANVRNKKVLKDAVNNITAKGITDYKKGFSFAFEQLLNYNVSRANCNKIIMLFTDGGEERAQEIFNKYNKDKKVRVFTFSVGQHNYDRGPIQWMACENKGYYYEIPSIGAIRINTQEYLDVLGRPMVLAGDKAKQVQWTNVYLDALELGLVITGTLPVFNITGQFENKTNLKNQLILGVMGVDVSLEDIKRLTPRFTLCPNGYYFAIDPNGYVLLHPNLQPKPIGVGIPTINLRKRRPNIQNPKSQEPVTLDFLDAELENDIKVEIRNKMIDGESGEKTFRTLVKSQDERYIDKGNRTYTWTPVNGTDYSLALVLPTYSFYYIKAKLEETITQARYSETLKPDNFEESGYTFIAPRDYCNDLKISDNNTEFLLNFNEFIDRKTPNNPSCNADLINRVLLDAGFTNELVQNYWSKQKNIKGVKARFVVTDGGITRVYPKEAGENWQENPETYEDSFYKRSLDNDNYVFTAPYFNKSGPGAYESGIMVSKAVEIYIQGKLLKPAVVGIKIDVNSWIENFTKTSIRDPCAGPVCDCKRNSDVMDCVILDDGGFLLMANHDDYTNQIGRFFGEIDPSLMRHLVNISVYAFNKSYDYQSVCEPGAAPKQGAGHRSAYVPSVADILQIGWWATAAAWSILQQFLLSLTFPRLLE
T1 sequence (P54289 957-1103 partner limits assumed): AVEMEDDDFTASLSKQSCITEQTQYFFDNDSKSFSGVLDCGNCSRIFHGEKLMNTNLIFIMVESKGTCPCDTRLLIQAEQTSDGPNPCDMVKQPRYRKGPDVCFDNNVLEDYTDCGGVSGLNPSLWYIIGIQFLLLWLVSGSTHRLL
T1 sequence (P54284 whole entry partner): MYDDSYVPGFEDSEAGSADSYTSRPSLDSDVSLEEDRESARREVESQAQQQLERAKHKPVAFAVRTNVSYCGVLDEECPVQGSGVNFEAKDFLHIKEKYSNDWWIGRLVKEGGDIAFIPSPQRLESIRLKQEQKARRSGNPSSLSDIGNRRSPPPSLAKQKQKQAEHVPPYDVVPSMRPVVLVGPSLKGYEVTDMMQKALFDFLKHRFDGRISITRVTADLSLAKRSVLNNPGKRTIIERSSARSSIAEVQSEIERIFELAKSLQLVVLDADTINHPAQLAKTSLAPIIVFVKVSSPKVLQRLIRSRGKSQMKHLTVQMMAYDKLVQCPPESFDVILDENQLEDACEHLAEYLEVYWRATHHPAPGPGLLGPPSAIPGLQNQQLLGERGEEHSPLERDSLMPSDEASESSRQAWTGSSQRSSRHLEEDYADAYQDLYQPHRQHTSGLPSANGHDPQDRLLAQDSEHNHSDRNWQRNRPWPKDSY

Q: How did the IC50 turn out when “5-methyl-1-{(3aR,4S,6aS)-2-[6-(trifluoromethyl)pyridin-2-yl]octahydrocyclopenta[c]pyrrol-4-yl}-1H-benzimidazole and 6-methyl-1-{(3aR,4S,6aS)-2-[6-(trifluoromethyl)pyridin-2-yl]octahydrocyclopenta[c]pyrrol-4-yl}-1H-benzimidazole [Example 59]” was run?
A: Its IC50 is 2.8 µM.

Q: How did the IC50 turn out when `C=C1CC[C@@H]2CN(Cc3ccccc3)C[C@H]12` [Example 1, (3aS,6aS)-2-benzyl-4-methyleneoctahydrocyclopenta[c]pyrrole] was run?
A: The IC50 was over 30 µM.

Q: `C[C@@]1(NC(=O)c2ccccc2)CC[C@@H]2CN(Cc3ccccc3)C[C@@H]21` [Example 2, N-[(3aR,4R,6aS)-2-benzyl-4-methyloctahydrocyclopenta[c]pyrrol-4-yl]benzamide] was tested. Which IC50 did it give?
A: Its IC50 is 11.5 µM.

Q: Which IC50 does the source give for `C[C@]1(NC(=O)c2ccccc2)CC[C@@H]2CN(Cc3ccccc3)C[C@@H]21` [Example 3, N-[(3aR,4S,6aS)-2-benzyl-4-methyloctahydrocyclopenta[c]pyrrol-4-yl]benzamide] here?
A: The IC50 was 12 µM.

Q: How did the IC50 turn out when `CC(=O)N[C@]1(C)CC[C@@H]2CN(Cc3ccccc3)C[C@@H]21` [Example 4, N-[(3aR,4R,6aS)-2-benzyl-4-methyloctahydrocyclopenta[c]pyrrol-4-yl]acetamide] was run?
A: Its IC50 is over 30 µM.

Q: With `CC(=O)N[C@@]1(C)CC[C@@H]2CN(Cc3ccccc3)C[C@@H]21` [Example 5, N-[(3aR,4S,6aS)-2-benzyl-4-methyloctahydrocyclopenta[c]pyrrol-4-yl]acetamide] as the compound, how does the IC50 read?
A: Its IC50 is over 30 µM.

Q: For `C[C@@]1(NC(=O)c2cccc(F)c2)CC[C@@H]2CN(Cc3ccccc3)C[C@@H]21` [Example 6, N-[(3aR,4R,6aS)-2-benzyl-4-methyloctahydrocyclopenta[c]pyrrol-4-yl]-3-fluorobenzamide], which IC50 is on record?
A: The IC50 was 17.7 µM.

Q: Which IC50 does the source give for `C[C@]1(NC(=O)c2cccc(F)c2)CC[C@@H]2CN(Cc3ccccc3)C[C@@H]21` [Example 7, N-[(3aR,4S,6aS)-2-benzyl-4-methyloctahydrocyclopenta[c]pyrrol-4-yl]-3-fluorobenzamide] here?
A: Its IC50 is 5.16 µM.

Q: `C[C@@]1(NC(=O)c2ccccc2)CC[C@@H]2CNC[C@@H]21` [Example 8, N-[(3aR,4R,6aS)-4-methyloctahydrocyclopenta[c]pyrrol-4-yl]benzamide] was tested. Which IC50 did it give?
A: The IC50 was 26.3 µM.

Q: For `C[C@]1(NC(=O)c2ccccc2)CC[C@@H]2CNC[C@@H]21` [Example 9, N-[(3aR,4S,6aS)-4-methyloctahydrocyclopenta[c]pyrrol-4-yl]benzamide], which IC50 is on record?
A: The IC50 was over 30 µM.

Q: For `C[C@@]1(NC(=O)c2ccccc2)CC[C@@H]2CN(c3cccc(C(F)(F)F)n3)C[C@@H]21` [Example 14, N-{(3aR,4R,6aS)-4-methyl-2-[6-(trifluoromethyl)pyridin-2-yl]octahydrocyclopenta[c]pyrrol-4-yl}benzamide], which IC50 is on record?
A: Its IC50 is 2.14 µM.

Q: `C[C@]1(NC(=O)c2ccccc2)CC[C@@H]2CN(c3cccc(C(F)(F)F)n3)C[C@@H]21` [Example 15, N-{(3aR,4S,6aS)-4-methyl-2-[6-(trifluoromethyl)pyridin-2-yl]octahydrocyclopenta[c]pyrrol-4-yl}benzamide] was tested. Which IC50 did it give?
A: The IC50 was 2.52 µM.

Q: With `CC(=O)N[C@]1(C)CC[C@@H]2CN(c3cccc(C(F)(F)F)n3)C[C@@H]21` [Example 16, N-{(3aR,4R,6aS)-4-methyl-2-[6-(trifluoromethyl)pyridin-2-yl]octahydrocyclopenta[c]pyrrol-4-yl}acetamide] as the compound, how does the IC50 read?
A: Its IC50 is 6.44 µM.

Q: Which IC50 does the source give for `CC(=O)N[C@@]1(C)CC[C@@H]2CN(c3cccc(C(F)(F)F)n3)C[C@@H]21` [Example 17, N-{(3aR,4S,6aS)-4-methyl-2-[6-(trifluoromethyl)pyridin-2-yl]octahydrocyclopenta[c]pyrrol-4-yl}acetamide] here?
A: The IC50 was 3.27 µM.

Q: `C[C@@]1(NC(=O)c2cccc(F)c2)CC[C@@H]2CN(c3cccc(C(F)(F)F)n3)C[C@@H]21` [Example 18, 3-fluoro-N-{(3aR,4R,6aS)-4-methyl-2-[6-(trifluoromethyl)pyridin-2-yl]octahydrocyclopenta[c]pyrrol-4-yl}benzamide] was tested. Which IC50 did it give?
A: Its IC50 is 1.5 µM.
